Test system: major RAS (recurrent aphthous stomatitis) mouth ulcers
Assay: Clinical example: treatment of a human patient with longstanding major RAS
Assay type: in vivo
Procedure: There follows a description of the successful treatment of a human patient according to the invention.
The patient was a healthy person who had longstanding major RAS. The ulcers were located throughout the patient's mouth and oropharynx. […] The patient, prior to this visit, had been treated with numerous forms of conventional therapy, including systemic steroids and other pharmaceutical agents. All treatments had failed.
The patient was treated according to the invention as follows. The patient was given PTX tablets (one 400 mg tablet per day), combined with a rinse of the topical steroid DECADRON®.

SMILES: CC(=O)CCCCn1c(=O)c2c(ncn2C)n(C)c1=O [PTX, 3,7-Dihydro-3,7-dimethyl-1-(5-oxohexyl)-1H-purine-2,6-dione]
- Mouth ulcer status reported by the patient (approximately six months after initial treatment with PTX tablets plus DECADRON® rinse, then topical DECADRON® rinse on individual lesions): completely without mouth ulcers for the first time in eight years
- Resolution of the patient's major lesions (one patient, major RAS, PTX tablets (one 400 mg tablet per day) combined with a DECADRON® rinse, prior conventional therapies failed): completely resolved all of the patient's major lesions
